{
  "source": "paper PMC6503114",
  "about": "“Application of Antimicrobial Peptides of the Innate Immune System in Combination With Conventional Antibiotics—A Novel Way to Combat Antibiotic Resistance?” (Frontiers in Cellular and Infection Microbiology, 2019)",
  "key": {"E. coli ML-35p": {"test_system": "E. coli ML-35p", "test": "microbe, parasite or virus in culture", "format": "cell-based, Escherichia coli", "conditions": "median of 3–6 experiments, value in square brackets = twice the maximal tested concentration", "description": "Prior to the “checkerboard” synergy test the minimal inhibitory concentrations (MIC) of individual substances were determined using broth microdilution assay. Testing was performed in 60-well polystyrene Terasaki microplates with V-shaped bottom generally according to the guidelines of the European Committee for Antimicrobial Susceptibility Testing with subtle modifications designed for AMP testing (Tossi et al., [1997]; Wiegand et al., [2008]). Cultivation of bacteria was carried out in 2.1% Müller-Hinton broth at 37°C with shaking. Two-fold serial dilutions of peptides, antibiotics and other antimicrobials were made with 10 mM sodium phosphate buffer, pH 7.4, containing 0.1% of BSA. The plates were preliminary incubated with 0.1% BSA for 1 h at 37°C to reduce a non-specific binding of peptides to the plates. After that BSA was removed, and serial dilutions were added into the plate wells in triplicates followed by the same volume of the suspension of bacterial cells in logarithmic phase of growth in concentration of 1 × 10^6 CFU/ml. After the 18 h overnight incubation at 37°C, the MIC value for each compound was determined as its lowest concentration completely inhibiting the visible growth of bacteria. The final results were calculated as median values based on 3–6 independent experiments."}, "Murine EAC": {"test_system": "Murine EAC", "test": "MTT-test", "format": "cell-based, mice", "conditions": "Murine EAC tumor cells, 24 h", "method": "(§1) Before the cells extraction, mice were sacrificed by cervical dislocation in accordance with the supplement to the Directive 86/609/EEC and its update Directive 2010/63/EU addressing the recommendations for euthanasia of experimental animals (Close et al., [1996]). To obtain peritoneal macrophages, healthy mice were used. The abdominal cavity of each animal was washed with 3 ml of sterile PBS using a Pasteur pipette. The culture of EAC cells was kindly provided by Dr. E.P. Kiseleva (Immunology Department of the Institute of Experimental Medicine, Saint Petersburg, Russia). On the tenth day after the intraperitoneal tumor inoculation, 0.5–1.5 ml of ascitic fluid containing EAC cells was obtained from the abdominal cavity of the animals. Murine cells (normal or tumor) were washed twice with 10 ml of sterile PBS and resuspended in RPMI-1640 medium as described above for human neutrophils and PBMC.\n(§2) We calculated Fractional Effective Concentration Index (FECI), which could be seen as a particular case of the interaction index (I) proposed by Berenbaum ([1977]) or of the similar combination index (CI) proposed by Chou and Talalay ([1983]), according to the equation below: […]\n(§3) Here, [MEC A] and [MEC B] are the minimum effective concentrations (MEC) of substances A and B, when they are used alone. […] [A] and [B] are respective concentrations of substances A and B in their combination, where the same statistically significant difference is detected. A non-parametric Mann-Whitney U-test (p < 0.05 or p < 0.01) was used for the mentioned statistical comparison.\n(§4) We have chosen the same intervals as that of FICI to determine synergy, additivity, independent action, and antagonism based on the minimal FECI values. However, in case of cytotoxic or hemolytic effect we were interested mainly in testing the possibility of additive or synergistic interaction itself, and not in assessing the exact magnitude of such interaction. Thus, in contrast to the “checkerboard titration” method used for combined antimicrobial activity investigation, studying the combined cytotoxic effect, we considered only two combinations of concentrations for the substances A and B in the mixture: • (½ MEC A + ½ MEC B), which, if found effective, provides the FECI value of 1 (the threshold value for additivity); • (¼ MEC A + ¼ MEC B), which, if found effective, provides the FECI value of 0.5 (the threshold value for synergetic interaction).\n(§5) When action on tumor cells was tested in combination with antitumor antibiotic the lower concentrations up to ( 1/16 MEC A + 1/16 MEC B) as in checkerboard titration were additionally examined to assess the magnitude of synergistic effect more precisely. The final conclusion was made based on the three independent experiments.\n(§6) Standard MTT-test (Mosmann, [1983]) was used for the examination of the cytotoxic activity of antimicrobial compounds and their combinations toward varied eukaryotic cells. Briefly, cell suspensions in RPMI-1640 prepared as described in Eukaryotic Cells were dispensed into the 96-well microplates (2 × 10^5 cells/well). Then, serial dilutions of AMPs, or other antibiotic compounds, or their mixtures in RPMI-1640 were added. In positive controls (100% cell survival) the according volume of RPMI-1640 without test substances was added instead. The final volume in each well was 100 μl. Negative controls (0% cell survival) were made with 100 μl of the sterile RPMI-1640. The plates were incubated at 37°C under 5% CO2 for 24 h. Four hours before the end of incubation, 10 μl of metabolic marker MTT−3-(4,5-dimethylthiazol-2-yl)-2,5-diphenyltetrazolium bromide (5 mg/ml, diluted in PBS) was added to each well. Incubation was stopped by adding 90 μl of isopropanol containing 0.04 M HCl. Content of the wells was thoroughly mixed, so that the formazan crystals, formed in case of the reduction of MTT in presence of actively metabolizing cells, were fully dissolved."}, "Human neutrophils": {"test_system": "Human neutrophils", "method": "The pellet formed under the Ficoll-400 layer after separation contained both neutrophils and erythrocytes. It was also transferred into a separate tube, where the red blood cells were lysed with 0.83% ammonium chloride solution, which was added in a ratio of 1:4. After the thorough mixing, the suspension was incubated for 10 min at room temperature, and then centrifuged for 10 min at 300 g and 4°C. The resulting precipitate containing neutrophils was washed twice with the sterile PBS.\nas §2, §3, §4, §5\nas §6, with “dissolved. The optical density of the samples was evaluated at 540 nm, subtracting the background absorbance at 690 nm, by SpectraMax 250 Spectrophotometer (Molecular Devices, USA). The experiments were repeated at least three times. In each experiment test samples were made in triplicates and control samples were made in hexaplicates.” for “dissolved.”"}, "Human PBMC": {"test_system": "Human PBMC", "test": "MTT-test", "method": "To obtain neutrophils and mononuclear cells, whole heparinized blood was diluted with sterile PBS in a 1:1 ratio and carefully inserted into the sterile polystyrene 50 ml tube upon the 5 ml of the sterile Ficoll-400 (Pharmacia, Sweden) with a density of 1.077. The tube was centrifuged at 600 g and 4°C for 40 min. After separation, the mononuclear “ring” located between the blood plasma and Ficoll was collected with a Pasteur pipette, transferred to another tube, and washed twice with 10 ml of sterile PBS by centrifugation for 10 min at 300 g and 4°C.\nas §2, §3, §4, §5\nas §6, with “dissolved. The optical density of the samples was evaluated at 540 nm, subtracting the background absorbance at 690 nm, by SpectraMax 250 Spectrophotometer (Molecular Devices, USA). The experiments were repeated at least three times. In each experiment test samples were made in triplicates and control samples were made in hexaplicates.” for “dissolved.”"}, "[1]": {"test_system": "Murine peritoneal macrophages", "test": "MTT-test", "method": "as §1, §2, §3, §4, §5, §6"}, "[2]": {"test_system": "doxorubicin-resistant K562 tumor cells", "conditions": "for MEC: doxorubicin-resistant K562 cell line; for enhancement in MEC values comparing susceptible and resistant cell lines: doxorubicin-resistant vs susceptible K562", "method": "(§7) The human erythromyeloid leukemia cell line K562 was obtained from the collection of the Institute of Cytology RAS (Saint Petersburg, Russia) and cultured in RPMI-1640 medium containing gentamicin (100 μg/ml) and 10% of fetal bovine serum at 37°C, 5% CO2. […] Drug resistance was maintained by monthly selection with the antibiotic (2 μg/ml in the culturing medium). Doxorubicin was removed from the medium 3 days prior to beginning any experiments. Before the testing K562 cells were washed twice with PBS and resuspended in RPMI-1640 in the same way as the other cell types.\nas §2, §3, §4, §5, §6"}, "K562": {"test_system": "K562", "method": "as §7, §2, §3, §4, §5, §6"}},
  "note": "Where a SMILES comes first, the peptide text is derived from it. Bridges are numbered along the chain shown (N, C = ends).",
  "data": [
    {"smiles": "CC[C@H](C)[C@@H]1NC(=O)[C@H](CC(C)C)NC(=O)[C@@H]2CSSC[C@@H]3NC(=O)[C@H](CO)NC(=O)[C@@H](NC(=O)[C@@H](N)C(C)C)CSSC[C@@H](C(=O)N[C@H](C(=O)N[C@@H](CCCNC(=N)N)C(=O)N[C@H](C(=O)O)C(C)C)[C@@H](C)O)NC(=O)[C@H](CSSC[C@H](NC(=O)[C@H](Cc4ccccc4)NC(=O)[C@H](C(C)C)NC(=O)[C@H](CC(C)C)NC(=O)[C@H](CCCNC(=N)N)NC3=O)C(=O)N[C@@H](CCCNC(=N)N)C(=O)N[C@@H](CCCNC(=N)N)C(=O)N[C@@H]([C@@H](C)O)C(=O)N[C@@H](CCC(=O)O)C(=O)N[C@@H](CC(C)C)C(=O)N[C@@H](CCCNC(=N)N)C(=O)N[C@@H](C(C)C)C(=O)NCC(=O)N[C@@H](CC(N)=O)C(=O)N2)NC(=O)[C@H](Cc2ccc(O)cc2)NC(=O)[C@H]([C@@H](C)O)NC(=O)[C@H](Cc2ccccc2)NC(=O)[C@H](CO)NC(=O)[C@H](C(C)C)NC(=O)CNC(=O)CNC1=O", "note": "[HNP-4] (H-VCSCRLVFCRRTELRVGNCLIGGVSFTYCCTRV-OH; disulfide 2-30, 4-19, 9-29 (inferred); N-terminus and C-terminus assumed)", "values": [
      {"measurement": "MIC", "setting": "E. coli ML-35p", "result": ">100 [200] μM"}
    ]},
    {"smiles": "CC(C)C[C@H](NC(=O)[C@H](CCCNC(=N)N)NC(=O)CNC(=O)CNC(=O)[C@@H](N)CCCNC(=N)N)C(=O)N[C@H]1CSSC[C@@H](C(=O)N[C@H](C(=O)NCC(=O)N[C@@H](CCCNC(=N)N)C(N)=O)C(C)C)NC(=O)[C@H](C(C)C)NC(=O)[C@@H]2CSSC[C@H](NC(=O)[C@H](Cc3ccc(O)cc3)NC1=O)C(=O)N[C@@H](CCCNC(=N)N)C(=O)N[C@@H](CCCNC(=N)N)C(=O)N[C@@H](CCCNC(=N)N)C(=O)N[C@@H](Cc1ccccc1)C(=O)N2", "note": "[PG-1, protegrin 1]", "values": [
      {"measurement": "MEC of cytotoxic action", "setting": "Murine EAC", "result": 1.25, "unit": "µM"},
      {"measurement": "MEC of cytotoxic action", "setting": "Human neutrophils", "result": 2.5, "unit": "µM"},
      {"measurement": "MEC of cytotoxic action", "setting": "Human PBMC", "result": 5.0, "unit": "µM"},
      {"measurement": "MEC of cytotoxic action", "setting": "[1]", "result": 2.5, "unit": "µM"},
      {"measurement": "minimal FECI (combined cytotoxic action)", "setting": "[2]", "result": 0.38},
      {"measurement": "MEC", "setting": "[2]", "result": 5.0, "unit": "µM"},
      {"measurement": "enhancement in MEC values comparing susceptible and resistant cell lines", "setting": "[2]", "result": 4, "unit": "times"},
      {"measurement": "minimal FECI (combined cytotoxic action)", "setting": "K562", "result": 0.25},
      {"measurement": "MEC of cytotoxic action", "setting": "K562; K562 tumor cells (doxorubicin-sensitive), MTT, 24 h", "result": 1.25, "unit": "µM"}
    ]},
    {"smiles": "COc1cccc2c1C(=O)c1c(O)c3c(c(O)c1C2=O)C[C@@](O)(C(=O)CO)C[C@@H]3O[C@H]1C[C@H](N)[C@H](O)[C@H](C)O1", "note": "[doxorubicin]", "values": [
      {"measurement": "MEC", "setting": "[2]", "result": 100, "unit": "µg/mL"},
      {"measurement": "enhancement in MEC values comparing susceptible and resistant cell lines", "setting": "[2]", "result": 100, "unit": "times"},
      {"measurement": "MEC", "setting": "K562; susceptible K562 cell line", "result": 1, "unit": "µg/mL"}
    ]}
  ]
}
